Test results taken from publication PMC10850145, “Hormonal steroids induce multidrug resistance and stress response genes in Neisseria gonorrhoeae by binding to MtrR” (Nature Communications, 2024).
“And” between values parts separate entries of the source, which are not always exact repeats. Equal entries are not always repeated. “Also recorded” adds a separate entry of the source.

Experiments:
ngo1249-lacZ expression = test: β-galactosidase assay, ngo1249-lacZ fusion (negative control gene); conditions: WT-NGO1249-lacZ, 100 µM hormone
rpoH-lacZ expression = format: cell-based, Neisseria gonorrhoeae; conditions: only when strain produced wild-type MtrR
mtrC-lacZ expression = format: cell-based, Neisseria gonorrhoeae; conditions: only when strain produced wild-type MtrR
[1] = biological target: T1, MtrR binding to rpoH operator (27mer) (Neisseria gonorrhoeae, UniProt P39897); test: Plate-based fluorescence polarization DNA-binding assay, rpoH operator; conditions: for fluorescence polarization, plate-based MtrR titration: rpoH 27mer + 125µM
T1 construct: Hexa-histidine tag with TEV protease cleavage site (N, cleaved yes); made in house; host or cells: E. coli Rosetta Gami B(DE3) pLysS
T1 sequence (P39897 whole entry): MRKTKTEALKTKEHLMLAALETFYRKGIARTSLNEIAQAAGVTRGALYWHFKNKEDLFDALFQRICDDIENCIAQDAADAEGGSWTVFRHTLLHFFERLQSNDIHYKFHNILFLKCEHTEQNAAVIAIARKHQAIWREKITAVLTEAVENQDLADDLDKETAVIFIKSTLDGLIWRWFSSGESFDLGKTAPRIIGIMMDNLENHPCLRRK
Protocol: (§1) To analyze the effect of ethinyl estradiol on DNA binding by MtrR, fluorescence polarization DNA-binding data were collected in 96-well plates (Costar #3915 black, flat bottom). with a SpectraMax M5e Microplate Reader (Molecular Devices) and analyzed with Prism (Graphpad Software, version 10.0.0). Purified MtrR was buffer exchanged into “DNA” binding buffer (150 mM NaCl, 20 mM Tris-HCl pH 7.5, 2.5% glycerol, 1 mM TCEP). […] The binding affinity of protein for DNA was determined using the Morrison’s quadratic equation[72]. BSA and dI-dC are included as carriers and to control for nonspecific DNA binding. Samples were excited at 485 nm and polarized emissions measured at 525 nm, with a 515 nm cutoff. Controls were run with no protein (DNA ± methanol, ethinyl estradiol) to ensure that millipolarization values were not affected by experimental conditions alone. At least three independent experimental measurements were averaged for each reported binding constant.
(§2) Figure S2: Presence of Ethinyl Estradiol influences binding of MtrR to rpoH and mtrCDE operators. Plate based Fluorescence polarization DNA-binding isotherms reveal decreases in the binding affinity of MtrR for the rpoH and mtrCDE operators in the presence of ethinyl estradiol.
(§3) Experiments were run on the three independent experimental measurements were averaged for each reported binding constant. Data are represented by the mean values (point) +/- SEM (error

MtrR W136A = biological target: T2, MtrR W136A (Neisseria gonorrhoeae, UniProt P39897, W136A); test: biochemical; format: binding; conditions: ITC
T2 construct: Hexa-histidine tag with TEV protease cleavage site (N, cleaved yes); made in house; host or cells: E. coli Rosetta Gami B(DE3) pLysS
T2 sequence (P39897 whole entry W136A): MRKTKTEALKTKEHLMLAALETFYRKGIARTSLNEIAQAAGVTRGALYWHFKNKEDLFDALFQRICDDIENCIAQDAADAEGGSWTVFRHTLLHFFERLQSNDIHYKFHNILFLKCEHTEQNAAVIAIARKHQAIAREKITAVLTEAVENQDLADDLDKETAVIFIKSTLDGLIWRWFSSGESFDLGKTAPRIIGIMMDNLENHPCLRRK

MtrR [2] = biological target: T3, MtrR (Neisseria gonorrhoeae, UniProt P39897); test: Isothermal titration calorimetry, ligand binding to MtrR WT; conditions: ITC
T3 construct: Hexa-histidine tag with TEV protease cleavage site (N, cleaved yes); made in house; host or cells: E. coli Rosetta Gami B(DE3) pLysS
T3 sequence (P39897 whole entry): as the sequence (P39897 whole entry) above

MtrR D171A = biological target: T4, MtrR D171A (Neisseria gonorrhoeae, UniProt P39897, D171A); test: biochemical; format: binding; conditions: ITC
T4 construct: Hexa-histidine tag with TEV protease cleavage site (N, cleaved yes); made in house; host or cells: E. coli Rosetta Gami B(DE3) pLysS
T4 sequence (P39897 whole entry D171A): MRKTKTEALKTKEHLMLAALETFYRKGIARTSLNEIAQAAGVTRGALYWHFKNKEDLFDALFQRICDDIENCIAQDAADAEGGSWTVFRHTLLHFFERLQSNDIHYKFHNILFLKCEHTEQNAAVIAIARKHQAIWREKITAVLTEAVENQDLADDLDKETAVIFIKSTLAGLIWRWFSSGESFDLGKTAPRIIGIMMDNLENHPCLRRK

[3] = biological target: T5, MtrR binding to mtrCDE operator (21mer) (Neisseria gonorrhoeae, UniProt P39897); test: Plate-based fluorescence polarization DNA-binding assay, mtrCDE operator; conditions: mtrCDE 21mer + 125µM
T5 construct: Hexa-histidine tag with TEV protease cleavage site (N, cleaved yes); made in house; host or cells: E. coli Rosetta Gami B(DE3) pLysS
T5 sequence (P39897 whole entry): as the sequence (P39897 whole entry) above
Protocol: as §1, §2, §3

MtrR [4] = biological target: T3, MtrR; set-up: method as in PMID 31331979; conditions: cited from earlier work

CC12CCC3c4ccc(O)cc4CCC3C1CCC2O (stereo not drawn) [Beta-Estradiol]
Mean Miller units (ngo1249-lacZ expression): 4.6 Miller units

C#C[C@]1(O)CC[C@H]2[C@@H]3CCc4cc(O)ccc4[C@H]3CC[C@@]21C [Ethinyl Estradiol, ethinyl estradiol]
induction of rpoH expression (rpoH-lacZ expression): could induce expression
induction of mtrC expression (mtrC-lacZ expression): could induce expression
change in binding affinity of MtrR for rpoH operator ([1]; presence of ethinyl estradiol, 125 µM): decreases in
fluorescence polarization, plate-based MtrR titration ([1]; MtrR WT dimer 0 nM): 0 mP
fluorescence polarization, plate-based MtrR titration ([1]; MtrR WT dimer 9.4 nM): 5 mP and 3 mP and 4 mP
fluorescence polarization, plate-based MtrR titration ([1]; MtrR WT dimer 25 nM): 10 mP and 5 mP
fluorescence polarization, plate-based MtrR titration ([1]; MtrR WT dimer 37.5 nM): 12 mP and 10 mP and 16 mP
fluorescence polarization, plate-based MtrR titration ([1]; MtrR WT dimer 50 nM): 21 mP and 17 mP and 16 mP
fluorescence polarization, plate-based MtrR titration ([1]; MtrR WT dimer 75 nM): 25 mP and 18 mP and 24 mP
fluorescence polarization, plate-based MtrR titration ([1]; MtrR WT dimer 100 nM): 29 mP and 24 mP
fluorescence polarization, plate-based MtrR titration ([1]; MtrR WT dimer 150 nM): 36 mP and 29 mP and 33 mP
fluorescence polarization, plate-based MtrR titration ([1]; MtrR WT dimer 200 nM): 40 mP and 31 mP and 33 mP
fluorescence polarization, plate-based MtrR titration ([1]; MtrR WT dimer 300 nM): 44 mP and 39 mP and 40 mP
fluorescence polarization, plate-based MtrR titration ([1]; MtrR WT dimer 400 nM): 48 mP and 37 mP and 40 mP
fluorescence polarization, plate-based MtrR titration ([1]; MtrR WT dimer 600 nM): 50 mP and 42 mP and 51 mP
fluorescence polarization, plate-based MtrR titration ([1]; MtrR WT dimer 800 nM): 50 mP and 44 mP and 53 mP
binding to MtrR W136A compared with wild type (MtrR W136A): tolerates binding
binding stoichiometry N (ligand per MtrR) (MtrR [2]): ~ 1
Kd (MtrR [2]; 25 °C, 1% MeOH, read-out: equilibrium dissociation constant (Kd), MtrR WT): 940 nM and ~940 nM
binding to MtrR D171A (MtrR D171A): no observable binding
fluorescence polarization, plate-based MtrR titration ([3]; MtrR WT dimer 0 nM): 0 mP
fluorescence polarization, plate-based MtrR titration ([3]; MtrR WT dimer 37.5 nM): 6 mP and 5 mP
fluorescence polarization, plate-based MtrR titration ([3]; MtrR WT dimer 75 nM): 9 mP and 8 mP and 10 mP
fluorescence polarization, plate-based MtrR titration ([3]; MtrR WT dimer 100 nM): 11 mP and 12 mP
fluorescence polarization, plate-based MtrR titration ([3]; MtrR WT dimer 150 nM): 12 mP and 15 mP and 13 mP
fluorescence polarization, plate-based MtrR titration ([3]; MtrR WT dimer 200 nM): 18 mP and 21 mP and 16 mP
fluorescence polarization, plate-based MtrR titration ([3]; MtrR WT dimer 300 nM): 28 mP and 21 mP
fluorescence polarization, plate-based MtrR titration ([3]; MtrR WT dimer 400 nM): 26 mP and 30 mP and 27 mP
fluorescence polarization, plate-based MtrR titration ([3]; MtrR WT dimer 600 nM): 31 mP and 27 mP and 29 mP
fluorescence polarization, plate-based MtrR titration ([3]; MtrR WT dimer 800 nM): 33 mP and 36 mP and 34 mP

CC[C@H]1OC(=O)[C@H](C)[C@@H](O[C@H]2C[C@@](C)(OC)[C@@H](O)[C@H](C)O2)[C@H](C)[C@@H](O[C@@H]2O[C@H](C)C[C@H](N(C)C)[C@H]2O)[C@](C)(O)C[C@@H](C)CN(C)[C@H](C)[C@@H](O)[C@]1(C)O [azithromycin]
binding to MtrR WT (MtrR [2]): no binding; also recorded: does not bind

C[C@H](CCC(=O)O)[C@H]1CC[C@H]2[C@@H]3[C@H](O)C[C@@H]4C[C@H](O)CC[C@]4(C)[C@H]3CC[C@]12C [chenodeoxycholate]
MtrR binding and induction (MtrR [4]): binds and is induced by

CC(C)CCC[C@@H](C)[C@H]1CC[C@H]2[C@@H]3CC=C4C[C@@H](O)CC[C@]4(C)[C@H]3CC[C@]12C [cholesterol]
binding to MtrR WT (MtrR [2]): no binding

C[C@]12CCC(=O)C=C1CC[C@@H]1[C@@H]2[C@@H](O)C[C@@]2(C)[C@H]1CC[C@]2(O)C(=O)CO [cortisol]
binding to MtrR WT (MtrR [2]): no binding

C[C@H](CCC(=O)NCCS(=O)(=O)O)[C@H]1CC[C@H]2[C@@H]3CC[C@@H]4C[C@H](O)CC[C@]4(C)[C@H]3C[C@H](O)[C@]12C [taurodeoxycholate]
MtrR binding and induction (MtrR [4]): binds and is induced by
